Earlier results as cited in patent US11964046B2, “Topical composition for the control of pain in animals” (priority 2016, dated 2024).

Test system: piglets
[1] = lidocaine injected at least three minutes prior to castration, p<0.001

CCN(CC)CC(=O)Nc1c(C)cccc1C [lidocaine]
pain during castration (study conclusion) (injected): reduced pain during castration | intensity of calls during castration [1]: lower intensity | resistance movements during castration [1]: less resistance movements
